Earlier results in US5317003A, “Herbicidal compositions comprising glyphosate salts and alkoxylated quaternary amine surfactants” (Monsanto Company, priority 1992, dated 1994).

In the case of `O=C(O)CNCP(=O)(O)O` [N-phosphonomethylglycine], the solubility in water is listed as “relatively insoluble”.
